Literature values, collected in US20210361561A1, “A pouch product suitable for application in an oral cavity” (priority 2019, published 2021).

What was measured:
CB1 receptors = CB1 receptors (Homo sapiens, UniProt P21554)
CB2 receptors = CB2 receptors (Homo sapiens, UniProt P34972); details: compared with CB1 receptors
Chain of CB2 receptors (P34972 whole entry): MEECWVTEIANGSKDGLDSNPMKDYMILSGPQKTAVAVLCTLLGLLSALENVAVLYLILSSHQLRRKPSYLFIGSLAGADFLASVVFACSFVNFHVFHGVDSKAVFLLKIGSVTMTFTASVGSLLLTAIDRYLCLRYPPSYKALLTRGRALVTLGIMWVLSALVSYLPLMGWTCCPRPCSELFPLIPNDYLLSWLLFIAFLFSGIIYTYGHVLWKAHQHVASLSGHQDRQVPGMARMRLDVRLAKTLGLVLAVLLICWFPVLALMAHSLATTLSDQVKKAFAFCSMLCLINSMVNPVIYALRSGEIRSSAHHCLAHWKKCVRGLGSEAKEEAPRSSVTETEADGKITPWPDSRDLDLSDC

Chain of CB1 receptors (P21554 whole entry): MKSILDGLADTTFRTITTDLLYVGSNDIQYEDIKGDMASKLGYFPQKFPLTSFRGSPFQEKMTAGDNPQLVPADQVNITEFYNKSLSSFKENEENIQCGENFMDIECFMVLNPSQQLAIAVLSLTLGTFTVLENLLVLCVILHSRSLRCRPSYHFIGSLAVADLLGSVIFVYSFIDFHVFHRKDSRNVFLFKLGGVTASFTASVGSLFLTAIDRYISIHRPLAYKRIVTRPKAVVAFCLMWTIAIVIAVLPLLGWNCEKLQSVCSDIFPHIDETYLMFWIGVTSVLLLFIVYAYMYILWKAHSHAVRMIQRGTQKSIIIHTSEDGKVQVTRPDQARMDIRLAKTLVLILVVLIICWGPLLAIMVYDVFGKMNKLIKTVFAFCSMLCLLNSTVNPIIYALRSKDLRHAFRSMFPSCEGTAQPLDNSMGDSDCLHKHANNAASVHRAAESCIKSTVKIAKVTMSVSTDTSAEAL

CCCCCc1cc(O)c2c(c1)OC(C)(C)c1ccc(C)cc1-2 [CBN, 6,6,9-Trimethyl-3-pentyl-benzo[c]chromen-1-ol]
activity at the CB1 receptors (CB1 receptors): partial agonist
affinities relative to THC (CB1 receptors; CB1 and CB2 receptors): lower affinities relative to THC
affinity to CB2 receptors (CB2 receptors): higher affinity
